The target of the test is Mu-type opioid receptor (Rattus norvegicus, UniProt P33535). Nature of the test: Displacement of [3H]DAMGO from mu opioid receptor in rat brain homogenate. In general terms: Displacement assays read how much labelled ligand stays bound in the presence of the test substance.
Mu-type opioid receptor, sequence (P33535 whole entry): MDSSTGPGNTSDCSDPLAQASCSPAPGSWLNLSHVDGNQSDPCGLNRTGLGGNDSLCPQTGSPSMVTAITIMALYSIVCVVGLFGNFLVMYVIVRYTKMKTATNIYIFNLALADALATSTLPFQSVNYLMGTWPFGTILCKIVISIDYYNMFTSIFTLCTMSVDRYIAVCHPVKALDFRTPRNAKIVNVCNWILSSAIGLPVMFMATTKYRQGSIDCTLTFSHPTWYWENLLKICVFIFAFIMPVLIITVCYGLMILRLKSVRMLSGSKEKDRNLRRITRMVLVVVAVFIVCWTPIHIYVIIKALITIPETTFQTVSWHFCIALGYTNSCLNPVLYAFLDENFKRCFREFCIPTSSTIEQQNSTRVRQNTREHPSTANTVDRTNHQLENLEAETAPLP

By IC50 is commonly meant the concentration needed to halve the response being measured. Low values mean higher potency, high ones lower potency. `CN[C@@H](Cc1ccc(O)cc1)CN(C)[C@H](CNCc1ccccc1)Cc1ccc(O)cc1` [4-[(2S)-3-{[(2S)-1-(benzylamino)-3-(4-hydroxyphenyl)propan-2-yl](methyl)amino}-2-(methylamino)propyl]phenol] yielded an IC50 of 2 nM.

These data come from BindingDB's records for doi:10.1016/j.bmcl.2006.05.053 (Institute For Molecular Studies, 2006).
